Measurements as given in PubChem BioAssay AID248 (DTP/NCI, 2004).
Several values for one entry are separate records, joined by “and”; a condition that tells them apart may be missing. Equal entries are not always repeated. Toxic doses and inconclusive results are not listed. Cut-off read from the data, not from the text of the source: active = T/C of 150% or more; inactive = T/C below 125%.

Test system: L1210 leukemia ip in BDF1 mice, survival T/C
Test: NCI In Vivo Anticancer Drug Screen. Data for tumor model L1210 Leukemia (intraperitoneal) in B6D2F1 (BDF1) mice
Conditions: endpoint: mean survival time, higher = longer survival
Method in brief: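 Tumor cells were implanted, animals were treated, and survival was followed. The result divides the treated measurement by the vehicle-control measurement.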

[1] = dose: 100.0 mg/kg/injection, schedule: Q01DX001 (ip), vehicle: saline
[2] = dose: 200.0 mg/kg/injection, schedule: Q01DX001 (ip), vehicle: saline
[3] = dose: 400.0 mg/kg/injection, schedule: Q01DX001 (ip), vehicle: saline
[4] = dose: 100.0 mg/kg/injection, schedule: Q01DX001 (ip), vehicle: Klucel (hydroxypropylcellulose) (HPC)
[5] = dose: 200.0 mg/kg/injection, schedule: Q01DX001 (ip), vehicle: Klucel (hydroxypropylcellulose) (HPC)
[6] = dose: 100.0 mg/kg/injection, schedule: Q04DX002 (ip), vehicle: saline with Tween-80
[7] = dose: 200.0 mg/kg/injection, schedule: Q04DX002 (ip), vehicle: saline with Tween-80
[8] = dose: 400.0 mg/kg/injection, schedule: Q04DX002 (ip), vehicle: saline with Tween-80

Measured: T/C

CCCCCCCCNCCOC(=O)c1ccc(N(CC)CC)cc1
inactive: dose: 75.0 mg/kg/injection, schedule: Q01DX001 (ip), vehicle: carboxymethylcellulose (CMC) 91 % of control | dose: 150.0 mg/kg/injection, schedule: Q01DX001 (ip), vehicle: carboxymethylcellulose (CMC) 97 % of control

O/N=C/c1c(I)cc(I)c(O)c1I
inactive: dose: 100.0 mg/kg/injection, schedule: Q01DX009 (ip), vehicle: Klucel (hydroxypropylcellulose) (HPC) 101 % of control | dose: 200.0 mg/kg/injection, schedule: Q01DX009 (ip), vehicle: Klucel (hydroxypropylcellulose) (HPC) 106 % of control | dose: 400.0 mg/kg/injection, schedule: Q01DX009 (ip), vehicle: Klucel (hydroxypropylcellulose) (HPC) 90 % of control

O=[N+]([O-])c1ccc(-n2cnnn2)cc1
inactive: dose: 100.0 mg/kg/injection, schedule: Q01DX001 (ip), vehicle: carboxymethylcellulose (CMC) 94 % of control | dose: 200.0 mg/kg/injection, schedule: Q01DX001 (ip), vehicle: carboxymethylcellulose (CMC) 100 % of control | dose: 400.0 mg/kg/injection, schedule: Q01DX001 (ip), vehicle: carboxymethylcellulose (CMC) 91 % of control

O=C(c1ccc(-c2ccccc2)cc1)C1CC1c1ccccc1 (centres undefined)
inactive: dose: 100.0 mg/kg/injection, schedule: Q01DX009 (ip), vehicle: saline sonified 97 % of control | dose: 200.0 mg/kg/injection, schedule: Q01DX009 (ip), vehicle: saline sonified 96 % of control | dose: 400.0 mg/kg/injection, schedule: Q01DX009 (ip), vehicle: saline sonified 91 % of control

CCCC(=O)OCC1CC2C=CC1C2 (centres undefined)
inactive: dose: 222.0 mg/kg/injection, schedule: Q01DX Z (ip), vehicle: saline 100 % of control | dose: 333.0 mg/kg/injection, schedule: Q01DX Z (ip), vehicle: saline 102 % of control | dose: 500.0 mg/kg/injection, schedule: Q01DX Z (ip), vehicle: saline 112 % of control

CC(C)(CO)N=Cc1cc([N+](=O)[O-])ccc1O
inactive: [1] 110 % of control | [2] 107 % of control | [3] 110 % of control

NC(=O)c1ncn(C2CC(CO)C(O)C2O)c1N (centres undefined)
inactive: [1] 100 % of control | [2] 110 % of control | [3] 104 % of control

CC/C(=C(/Cl)c1ccccc1)c1ccccc1
inactive: [4] 98 % of control | [5] 102 % of control | dose: 400.0 mg/kg/injection, schedule: Q01DX001 (ip), vehicle: Klucel (hydroxypropylcellulose) (HPC) 100 % of control

CCCCCCCN(CCCCCCC)C(=O)N(CC)CC
inactive: [6] 93 % of control | [7] 93 % of control | [8] 97 % of control

CC1=CC(=O)C2CCC=C(C(=O)O)C2(C)C1=O (centres undefined)
inactive: dose: 100.0 mg/kg/injection, schedule: Q04DX003 (ip), vehicle: alcohol 97 % of control | dose: 200.0 mg/kg/injection, schedule: Q04DX003 (ip), vehicle: alcohol 102 % of control | dose: 400.0 mg/kg/injection, schedule: Q04DX003 (ip), vehicle: alcohol 97 % of control

COc1ccc(Cc2ccc3[nH]c(=O)cc(C)c3c2)cc1S(=O)(=O)O
inactive: [1] 104 % of control | [2] 105 % of control | [3] 94 % of control

CC1CC(C)(C)N=C(CCCO)O1 (centres undefined)
inactive: dose: 50.0 mg/kg/injection, schedule: Q04DX002 (ip), vehicle: saline with Tween-80 104 % of control | [6] 96 % of control | [7] 104 % of control | [8] 100 % of control

CCCCOC(=O)c1ccc(NC(=S)NC(=O)COc2ccccc2)cc1
inactive: dose: 100.0 mg/kg/injection, schedule: Q04DX002 (ip), vehicle: Klucel (hydroxypropylcellulose) (HPC) 118 % of control | dose: 200.0 mg/kg/injection, schedule: Q04DX002 (ip), vehicle: Klucel (hydroxypropylcellulose) (HPC) 101 % of control | dose: 400.0 mg/kg/injection, schedule: Q04DX002 (ip), vehicle: Klucel (hydroxypropylcellulose) (HPC) 97 % of control

NC1(C(=O)O)CSSC1
inactive: dose: 12.5 mg/kg/injection, schedule: Q01DX005 (ip), vehicle: saline 97 % of control | dose: 25.0 mg/kg/injection, schedule: Q01DX005 (ip), vehicle: saline 99 % of control | dose: 50.0 mg/kg/injection, schedule: Q01DX005 (ip), vehicle: saline 103 % of control and 114 % of control | [1] 106 % of control | dose: 100.0 mg/kg/injection, schedule: Q01DX005 (ip), vehicle: saline 110 % of control | [2] 101 % of control

O=[N+]([O-])c1ccc2c(N=Nc3ccc4ccccc4c3O)c(O)cc(S(=O)(=O)O)c2c1
inactive: dose: 50.0 mg/kg/injection, schedule: Q04DX003 (ip), vehicle: carboxymethylcellulose (CMC) 94 % of control | dose: 100.0 mg/kg/injection, schedule: Q04DX003 (ip), vehicle: carboxymethylcellulose (CMC) 93 % of control | dose: 200.0 mg/kg/injection, schedule: Q04DX003 (ip), vehicle: carboxymethylcellulose (CMC) 102 % of control

CN(CCc1ccccc1)C(N)=S
inactive: dose: 75.0 mg/kg/injection, schedule: Q01DX001 (ip), vehicle: acetone 96 % of control

Fc1ccc(CSC(=S)Nc2ccc(Cl)c(Cl)c2)cc1
inactive: dose: 75.0 mg/kg/injection, schedule: Q04DX003 (ip), vehicle: saline with Tween-80 102 % of control | dose: 150.0 mg/kg/injection, schedule: Q04DX003 (ip), vehicle: saline with Tween-80 106 % of control

OC1C(Cl)(Cl)CCCC1(Cl)Cl
inactive: dose: 50.0 mg/kg/injection, schedule: Q01DX009 (ip), vehicle: saline with Tween-80 90 % of control | dose: 100.0 mg/kg/injection, schedule: Q01DX009 (ip), vehicle: saline with Tween-80 94 % of control | dose: 200.0 mg/kg/injection, schedule: Q01DX009 (ip), vehicle: saline with Tween-80 98 % of control

Cc1cc(C)c(-c2c(C)cc(C)c(N)c2C)c(C)c1N
inactive: dose: 12.5 mg/kg/injection, schedule: Q01DX009 (ip), vehicle: Klucel (hydroxypropylcellulose) (HPC) 90 % of control | dose: 25.0 mg/kg/injection, schedule: Q01DX009 (ip), vehicle: Klucel (hydroxypropylcellulose) (HPC) 93 % of control | dose: 50.0 mg/kg/injection, schedule: Q01DX009 (ip), vehicle: Klucel (hydroxypropylcellulose) (HPC) 103 % of control | dose: 100.0 mg/kg/injection, schedule: Q04DX003 (ip), vehicle: Klucel (hydroxypropylcellulose) (HPC) 109 % of control | dose: 200.0 mg/kg/injection, schedule: Q04DX003 (ip), vehicle: Klucel (hydroxypropylcellulose) (HPC) 95 % of control | dose: 400.0 mg/kg/injection, schedule: Q04DX003 (ip), vehicle: Klucel (hydroxypropylcellulose) (HPC) 97 % of control

Cn1cc(/C=C\C(=O)O)c2nccnc21
inactive: dose: 37.5 mg/kg/injection, schedule: Q01DX009 (ip), vehicle: water 95 % of control | dose: 50.0 mg/kg/injection, schedule: Q01DX009 (ip), vehicle: water 100 % of control | dose: 75.0 mg/kg/injection, schedule: Q01DX009 (ip), vehicle: water 105 % of control | dose: 100.0 mg/kg/injection, schedule: Q01DX009 (ip), vehicle: water 89 % of control | dose: 100.0 mg/kg/injection, schedule: Q04DX003 (ip), vehicle: water 108 % of control | dose: 150.0 mg/kg/injection, schedule: Q01DX009 (ip), vehicle: water 89 % of control | dose: 200.0 mg/kg/injection, schedule: Q01DX009 (ip), vehicle: water 91 % of control | dose: 200.0 mg/kg/injection, schedule: Q04DX003 (ip), vehicle: water 106 % of control | dose: 300.0 mg/kg/injection, schedule: Q01DX009 (ip), vehicle: water 91 % of control

CC[N+](CC)(CCOc1ccc(C(C)(C)CC(C)(C)C)cc1)Cc1ccccc1
inactive: dose: 1.25 mg/kg/injection, schedule: Q01DX009 (ip), vehicle: saline with Tween-80 86 % of control

Nc1nc(N)c(-c2ccc(Cl)c(Cl)c2)c(COc2ccc(NC(=O)Nc3ccc(S(=O)(=O)F)c(Cl)c3)c(Cl)c2)n1
inactive: dose: 75.0 mg/kg/injection, schedule: Q01DX001 (ip), vehicle: saline with Tween-80 90 % of control | dose: 150.0 mg/kg/injection, schedule: Q01DX001 (ip), vehicle: saline with Tween-80 98 % of control

CCCCCCCCCCCCSc1ccc2ccccc2c1
inactive: [4] 87 % of control | [5] 92 % of control
